The numbers were not newly measured in US10500196B2 (Aequus Pharmaceuticals Inc., priority 2015, dated 2019), which cites them from elsewhere.

The conditions of the data set: oral DICLEGIS tablet.

Take `Cc1ncc(CO)c(CO)c1O.Cl` [Pyridoxine Hydrochloride, 3,4-pyridinedimethanol,5-hydroxy-6-methyl-,hydrochloride]: the “absorption when administered with food” value is “delayed” and the bioavailability with food result is on record as “reduces”.
